From BindingDB's records for doi:10.1016/j.bmcl.2017.08.049 (Renmin Hospital of Wuhan University, 2018)

Experiment: Inhibition of HIV1 3B gp41-induced cell-cell fusion between viral protein expressing human H9 cells and MT-2 target cells assessed as number of syncytia formation treated for 2 hrs measured after 6 hrs

Row | IC50 | SMILES
1 | 6.67 µM | Cc1cc2c(c(O)c1-c1c(C)cc3c(c1O)/C(=C/NC(C)S(=O)(=O)O)C(=O)C(O)=C3C(C)C)/C(=C/NC(C)S(=O)(=O)O)C(=O)C(O)=C2C(C)C (configuration not stated)
2 | 7.14 µM | Cc1cc2c(c(O)c1-c1c(C)cc3c(c1O)/C(=C/NC(C)C(=O)NC(C)C(=O)O)C(=O)C(O)=C3C(C)C)/C(=C/NC(C)C(=O)NC(C)C(=O)O)C(=O)C(O)=C2C(C)C (configuration not stated)
